Publication PMC2707266 (2009)
Where two headings read alike, the source gives them in different places.

How the values were obtained:
Assay type in all cases: biochemical
KPC-2 [1] = molecular target: T1, KPC-2 (Klebsiella pneumoniae, UniProt Q9F663); test: nitrocefin hydrolysis at […] nm, […] min pre-incubation
KPC-2 [2] = molecular target: T1, KPC-2; test: steady-state kinetics of hydrolysis at […] nm
KPC-2 [3] = molecular target: T1, KPC-2; test: nitrocefin hydrolysis at […] nm, […] min pre-incubation; remark: listed apart in the source

T1 sequence (Q9F663 25-293, looked up): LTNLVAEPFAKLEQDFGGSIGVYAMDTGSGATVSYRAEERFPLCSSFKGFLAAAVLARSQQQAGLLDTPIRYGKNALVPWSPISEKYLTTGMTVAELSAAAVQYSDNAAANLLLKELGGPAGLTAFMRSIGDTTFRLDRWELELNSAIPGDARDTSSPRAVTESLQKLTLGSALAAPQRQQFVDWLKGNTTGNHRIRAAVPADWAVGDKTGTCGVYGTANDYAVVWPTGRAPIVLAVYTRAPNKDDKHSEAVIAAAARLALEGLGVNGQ

Which IC50 (KPC-2 [1]) does the source give for `O=C(O)[C@H]1/C(=C/CO)O[C@@H]2CC(=O)N21` [clavulanate] here?
Its IC50 is 6.5 µM.

How did the Km (KPC-2 [2]) turn out when `O=C(Cc1cccs1)N[C@@H]1C(=O)N2C(C(=O)O)=C(/C=C/c3ccc([N+](=O)[O-])cc3[N+](=O)[O-])CS[C@H]12` [nitrocefin] was run?
Its Km is 52 µM.

How did the IC50 (KPC-2 [3]) turn out when `C[C@]1(Cn2ccnn2)[C@H](C(=O)O)N2C(=O)C[C@H]2S1(=O)=O` [tazobactam] was run?
The IC50 was 9.2 µM.
